From the supplement of paper PMC11781733 come the findings set out here.

Conditions in all cases: exposure time: 15 min to 3 h acute
For assay [1], the system named is Dugesia japonica. The experiment in a line: crawl-out incidence (% planarians); higher = higher incidence or increase relative to vehicle control. Here is the method: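 Adult asexual Dugesia japonica planarians (1 per well, 48-well plate, n=24 over technical triplicates) were exposed acutely (15 min to 3 h) to each compound (0.5% DMSO or water vehicle) and screened on a robotic platform for crawl-out, stickiness, body shape, phototaxis, noxious-heat scrunching and locomotion endpoints. Binary endpoints are incidence rate x100. Continuous endpoints are the median response normalised to the plate vehicle median, as % change or difference. Negative incidences after vehicle subtraction were set to 0.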

The test system of assay [2] is Dugesia japonica. The experiment in a line: corkscrew incidence (% planarians (vehicle-normalised)); higher = higher incidence or increase relative to vehicle control. The method, boiled down:
(§1)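 In sealed 48-well plates holding one D. japonica planarian per well in 200 μL, worms fasted 5–7 days were exposed to at least 5 concentrations and screened within 15 minutes–3 hours. Contraction, C-shape, corkscrew and hyperkinesis were scored manually by a blinded researcher, and crawled-out worms were dropped. For each shape or for any abnormal shape, incidence is given ×100 after normalisation to vehicle controls on the plate, with negatives at 0.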

For assay [3], the system named is Dugesia japonica. The experiment in a line: loss of heat-induced scrunching incidence (% planarians (vehicle-normalised)); higher = higher incidence or increase relative to vehicle control. The method, boiled down:
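D. japonica planarians (fasted 5–7 days), one per well in 200 μL in sealed 48-well plates, were exposed to at least 5 concentrations (n = 24 per concentration, technical triplicates). They were tested within 15 minutes–3 hours for scrunching in response to a noxious heat stimulus; worms that crawled out were excluded. The value is the incidence ×100 of worms without scrunching, normalised to in-plate vehicle controls, with negatives set to 0.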

The subject of assay [4] is Dugesia japonica. The experiment in a line: resting fraction in blue light vs vehicle (difference in fraction x100 vs vehicle); higher = higher incidence or increase relative to vehicle control. The method, boiled down: (§2)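 Resting fraction in the dark or under blue light was measured by automated tracking of intact, fasted Dugesia japonica, one per well of a 48-well plate in 200 μL. Worms were tested 15 min to 3 h after exposure in 0.5% DMSO or water vehicle. Eight worms per concentration per plate were run in technical triplicate (n = 24). The plate's vehicle median was subtracted from each worm, the difference was multiplied by 100, and the median is reported; worms that crawled out were excluded.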

For assay [5], the system named is Dugesia japonica. The experiment in a line: stickiness incidence (% planarians (vehicle-normalised)); higher = higher incidence or increase relative to vehicle control. The method, boiled down:
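In the Stickiness assay, fasted Dugesia japonica planarians were each placed in one well of a sealed 48-well plate containing 200 μL of solution, with 0.5% DMSO or water as vehicle. Testing took place 15 min–3 h after exposure to half- or quarter-log concentration series. Stickiness was recorded as a binary endpoint, and its incidence was expressed relative to in-plate vehicle incidence after pooling technical triplicates and removing worms that crawled out. Negative values were set to 0 and all values were multiplied by 100.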

For assay [6], the system named is Dugesia japonica. Kind of assay: speed in dark vs vehicle (% change vs vehicle); higher = higher incidence or increase relative to vehicle control. Here is the method: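 Adult asexual Dugesia japonica planarians (1 per well, 48-well plate, n=24 over technical triplicates) were exposed acutely (15 min to 3 h) to each compound (0.5% DMSO or water vehicle) and screened on a robotic platform for crawl-out, stickiness, body shape, phototaxis, noxious-heat scrunching and locomotion endpoints. Binary endpoints are incidence rate x100 normalised to in-plate vehicle controls. Continuous endpoints are the median response normalised to the plate vehicle median, as % change or difference. Negative incidences after vehicle subtraction were set to 0.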

Assay [7] relates to Dugesia japonica. The experiment in a line: contracted body shape incidence (% planarians (vehicle-normalised)); higher = higher incidence or increase relative to vehicle control. The method, boiled down: as §1
In assay [8] the test system is Dugesia japonica. The experiment in a line: pharynx extrusion incidence (% planarians (vehicle-normalised)); higher = higher incidence or increase relative to vehicle control. The method, boiled down:
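Pharynx extrusion incidence in intact, fasted Dugesia japonica was scored blind and by hand as a body-shape category, then normalised to vehicle controls from the same plate. Each worm was held alone in a 48-well plate well containing 200 μL and tested 15 min to 3 h after exposure, with 0.5% DMSO or water as vehicle. Eight worms per concentration per plate were used in technical triplicate (n = 24). Negatives were set to 0, and worms that crawled out were excluded.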

The test system of assay [9] is Dugesia japonica. The experiment in a line: total locomotor bursts minus vehicle (bursts difference vs vehicle); higher = higher incidence or increase relative to vehicle control. The method in brief:
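Fasted Dugesia japonica planarians, one per well of a sealed 48-well plate in 200 μL solution, were tested 15 min–3 h after exposure to half- or quarter-log concentration series. The vehicle was 0.5% DMSO or water. Total locomotor bursts, an unstimulated behaviour, came from image-based object tracking, with technical triplicates totalling n = 24. Each planarian's value had the plate vehicle-control median subtracted, without ×100 scaling. The value is the median normalised response, and crawled-out worms were excluded.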

In assay [10] the test system is Dugesia japonica. The experiment in a line: anxiety (time in outer well region) vs vehicle (% change vs vehicle); higher = higher incidence or increase relative to vehicle control. The method in brief:
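Sealed 48-well plates held one D. japonica planarian per well in 200 μL, with worms fasted 5–7 days beforehand and tested at at least 5 concentrations (n = 24 per concentration). Screening took place within 15 minutes–3 hours. Using object tracking in MATLAB or Python, time spent in the outer part of the well was recorded, and worms that crawled out were excluded. Responses were divided by, or reduced by, the plate vehicle median and multiplied by 100, and the median is reported.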

For assay [11], the system named is Dugesia japonica. The experiment in a line: speed second 30 s blue light vs vehicle (% change vs vehicle); higher = higher incidence or increase relative to vehicle control. The method, boiled down:
(§3)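 Each value is the median percent change in crawling speed, with each worm normalised to the median of the vehicle worms on its plate. Intact, fasted Dugesia japonica were tracked automatically one per well in 48-well plates holding 200 μL, either in the dark or during blue-light periods. Testing ran from 15 min to 3 h after exposure, with 0.5% DMSO or water as vehicle. Eight worms per concentration per plate were run in technical triplicate (n = 24), and any worm that crawled out of the liquid was excluded.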

Assay [12] deals with Dugesia japonica. Kind of assay: hyperkinesis incidence (% planarians (vehicle-normalised)); higher = higher incidence or increase relative to vehicle control. The method in brief: as §1
Assay [13] has as its system Dugesia japonica. The experiment in a line: any abnormal body shape incidence (% planarians (vehicle-normalised)); higher = higher incidence or increase relative to vehicle control. The method, boiled down:
as §1

Assay [14] deals with Dugesia japonica. The experiment in a line: loss of phototaxis incidence (% planarians (vehicle-normalised)); higher = higher incidence or increase relative to vehicle control. The method in brief:
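Loss of phototaxis was scored as a yes/no endpoint in intact, fasted Dugesia japonica using automated object tracking. Each worm was held alone in a well of a 48-well plate in 200 μL and tested 15 min to 3 h after exposure in 0.5% DMSO or water vehicle. Eight worms per concentration per plate were run in technical triplicate (n = 24), and worms that crawled out were excluded. The incidence rate ×100 was normalised to in-plate vehicle controls, with negative values set to 0.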

Assay [15] deals with Dugesia japonica. Kind of assay: speed first 30 s blue light vs vehicle (% change vs vehicle); higher = higher incidence or increase relative to vehicle control. The method, boiled down:
as §3

Assay [16] relates to Dugesia japonica. Kind of assay: resting fraction in dark vs vehicle (difference in fraction x100 vs vehicle); higher = higher incidence or increase relative to vehicle control. The method, boiled down: as §2
The test system of assay [17] is Dugesia japonica. The experiment in a line: C-shape incidence (% planarians (vehicle-normalised)); higher = higher incidence or increase relative to vehicle control. The method, boiled down: as §1
For assay [18], the system named is Dugesia japonica. Kind of assay: noxious heat displacement strength vs vehicle (% change vs vehicle); higher = higher incidence or increase relative to vehicle control. The method in brief: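 Intact, fasted Dugesia japonica were held one per well in 48-well plates containing 200 μL and tested 15 min to 3 h after exposure in 0.5% DMSO or water vehicle. The scrunching assay with automated object tracking gave displacement strength under noxious heat, reported as the median percent change after normalising each worm to its plate's vehicle median. Worms that crawled out were excluded.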

Where a name gives a salt, the structure may show the parent alone. Bounds are passed on as bounds.

In turn, `CC(NC(C)(C)C)C(=O)c1cccc(Cl)c1` (centres undefined) [bupropion] (10 µM) showed a crawl-out incidence with Dugesia japonica [1] of 0. In addition, the corkscrew incidence in the assay with Dugesia japonica [2] was 0. The “loss of heat-induced scrunching incidence” value in the assay on Dugesia japonica [3] was 4.17. The “resting fraction in blue light” value in the assay with Dugesia japonica [4] was 12.6. In addition, the stickiness incidence in the assay on Dugesia japonica [5] was ≤ 0. The speed in dark in the assay on Dugesia japonica [6] is -21.4. The “contracted body shape incidence” value with Dugesia japonica [7] came out at 0. The pharynx extrusion incidence in the assay with Dugesia japonica [8] is 0. Further, the “total locomotor bursts minus vehicle” value in the assay with Dugesia japonica [9] was -6. The anxiety in the assay on Dugesia japonica [10] stood at 3.29. Further, the “speed second 30 s blue light” value in the assay on Dugesia japonica [11] was 0.8. In the assay with Dugesia japonica [12], this molecule came in with a hyperkinesis incidence of 0. For the same molecule, the “any abnormal body shape incidence” value with Dugesia japonica [13] was determined as 0. Further, the “loss of phototaxis incidence” value with Dugesia japonica [14] came to 12.5. In the assay on Dugesia japonica [15], the “speed first 30 s blue light” value was -36.3. For the same molecule, the “resting fraction in dark” value in the assay with Dugesia japonica [16] came to 34.4. This molecule returned a C-shape incidence in the assay with Dugesia japonica [17] of 0. Besides, in the assay with Dugesia japonica [18], the “noxious heat displacement strength” value is -1.43.

As for `O=C(CCCN1CCC(O)(c2ccc(Cl)cc2)CC1)c1ccc(F)cc1` [haloperidol] (1 µM), in the assay with Dugesia japonica [1], the crawl-out incidence worked out at 4.17. The corkscrew incidence in the assay on Dugesia japonica [2] came to 0. The “loss of heat-induced scrunching incidence” value in the assay with Dugesia japonica [3] is ≤ 0. The “resting fraction in blue light” value in the assay on Dugesia japonica [4] came to 10.1. For the same molecule, the stickiness incidence in the assay on Dugesia japonica [5] is ≤ 0. In addition, the speed in dark in the assay with Dugesia japonica [6] was -17.7. In addition, the “contracted body shape incidence” value with Dugesia japonica [7] came out at 4.35. This molecule came in with a pharynx extrusion incidence in the assay with Dugesia japonica [8] of 0. For the same molecule, the “total locomotor bursts minus vehicle” value with Dugesia japonica [9] was 0. In the assay with Dugesia japonica [10], this molecule had an anxiety of 1.11. Besides, the “speed second 30 s blue light” value in the assay on Dugesia japonica [11] is -36.1. In the assay on Dugesia japonica [12], this molecule returned a hyperkinesis incidence of 0. In the assay with Dugesia japonica [13], the “any abnormal body shape incidence” value was 4.35. Further, in the assay with Dugesia japonica [14], the “loss of phototaxis incidence” value worked out at 21.7. The “speed first 30 s blue light” value in the assay on Dugesia japonica [15] was -26.1. Further, in the assay on Dugesia japonica [16], the “resting fraction in dark” value is 32.1. In the assay with Dugesia japonica [17], this molecule registered a C-shape incidence of 0. In the assay with Dugesia japonica [18], the “noxious heat displacement strength” value is -20.5.

Regarding `CN[C@H]1CC[C@@H](c2ccc(Cl)c(Cl)c2)c2ccccc21` [sertraline hydrochloride] (1 µM), the crawl-out incidence in the assay with Dugesia japonica [1] turned out to be 0. The same molecule yielded a corkscrew incidence in the assay on Dugesia japonica [2] of 0. For the same molecule, the “loss of heat-induced scrunching incidence” value in the assay on Dugesia japonica [3] worked out at 4.17. Besides, in the assay on Dugesia japonica [4], the “resting fraction in blue light” value amounted to 0. The molecule also had a stickiness incidence in the assay on Dugesia japonica [5] of 8.33. The speed in dark with Dugesia japonica [6] was determined as 0.19. For the same molecule, in the assay with Dugesia japonica [7], the “contracted body shape incidence” value stood at 0. Besides, in the assay on Dugesia japonica [8], the pharynx extrusion incidence came to 0. Also, the “total locomotor bursts minus vehicle” value in the assay with Dugesia japonica [9] was -2.5. Besides, in the assay on Dugesia japonica [10], the anxiety came out at 5.35. Besides, the “speed second 30 s blue light” value in the assay on Dugesia japonica [11] is -15.7. This molecule also displayed a hyperkinesis incidence in the assay with Dugesia japonica [12] of 12.5. In the assay with Dugesia japonica [13], the “any abnormal body shape incidence” value was determined as 12.5. In the assay on Dugesia japonica [14], the “loss of phototaxis incidence” value was ≤ 0. Also, in the assay with Dugesia japonica [15], the “speed first 30 s blue light” value was -11.7. The “resting fraction in dark” value with Dugesia japonica [16] came out at 5.44. For the same molecule, the C-shape incidence with Dugesia japonica [17] turned out to be 0. In the assay with Dugesia japonica [18], the “noxious heat displacement strength” value is -12.6.
